{
  "source": "patent US20230059107A1",
  "about": "“STABLE TOPICAL COMPOSITIONS OF FENOLDOPAM” (TARO PHARMACEUTICAL INDUSTRIES LTD., priority 2019, published 2023)",
  "key": {"[1]": {"system": "psoriatic xenotransplants (normal human skin grafted, psoriatic patient T-cell injected)", "assay": "Human skin xenotransplant model of psoriasis in beige-SCID mice: histological evaluation and epidermal thickness", "assay_type": "in vivo", "conditions": "for Mean epidermal thickness: mean of the group", "description": "The efficacy of the topical stable Fenoldopam compositions developed according to the current disclosure for the treatment of psoriasis is evaluated in a human skin xenotransplant model in mice. Human skin xenotransplant models are optimally suited for performing preclinical assays that explore novel anti-psoriatic agents/treatment strategies before initiating clinical trials. The purpose of this study is to evaluate the effectiveness of Fenoldopam mesylate formulations on the histological parameters of psoriasis in the human T-cell-driven model of psoriasis.\nThe patients included in the study have classic plaque psoriasis, and were not treated for the disease. Normal skin from one healthy volunteer is obtained for grafting.\nHealthy human skin pieces with a width of 0.4 mm and surface area of 1.5×1.5 cm are provided from residual skin of routine plastic surgery procedures from the Plastic Surgery Department of the Rambam Health Care Campus, Haifa, Israel. In addition, 20 mL blood samples were taken from the psoriatic patients.\nThe normal healthy human donor skin is transplanted onto the Beige-severe combined immuno-deficient mice (SCID) (weight ˜20 g).\nThe mice are divided into several treatment groups. Mice of each group receive activated allogeneic T-cells expressing high levels of NK cells receptors from the psoriatic donor.\nPeripheral Blood Mononuclear Cells (PBMCs) from the psoriatic patients' blood are isolated and cultured in the presence of a high dose of IL-2 (100 U/mL of media) for 14 days to activate allogeneic T-cells expressing high levels of NK cells receptors.\nFour weeks following the engraftment, each mouse is injected with 1×10^7 activated allogeneic IL2-enriched PBMCS from psoriatic patients (1×10^7 cells injected/mouse). Cells from different psoriasis patients are distributed equally between treatment groups. Each patient is represented in each treatment group.\nTwo weeks following the injections, the mice are divided randomly and treated daily for 14 constitutive days with the different topical formulations.\n(§1) Fourteen days after starting the treatment (four weeks following the injections), blood samples are taken and the skin is harvested. The grafts are analyzed histologically and immunohistochemically for psoriatic parameters.\nIn this model, a psoriasis-like phenotype is induced in normal human skin grafted onto beige-severe combined immunodeficient mice by intradermal injection of natural killer/T-cells derived from psoriatic patients (Gilhar et al., J Invest Dermatol. 2002 Aug;119(2):384-91.).\nThe purpose of these further experiments was to verify the therapeutic effect of FMT and compare the therapeutic effects of two doses (1% versus 2%) of two different formulations (cream versus gel).\nIn order to address the aim of the experiment, the psoriatic humanized mice were established. 10 psoriatic patients were recruited (seven males and three females), mean age 44 years, ranging from 22 to 61 years for testing. All patients had classic plaque psoriasis. None of the patients had been treated. Normal skin from one healthy volunteer was obtained for grafting.\nThe experiment comprised 72 mice divided into eight groups (Table 10). All of the mice were injected with T-cells expressing NK receptors obtained from psoriatic patients according to the protocol. Thereafter, the mice were separated as follows: Group 1: non-treated control; Group 2: dexamethasone; Group 3: FMT Gel 1%; Group 4: FMT Gel 2%; Group 5: Gel (vehicle); Group 6: FMT Cream 1%; Group 7: FMT Cream 2%; and Group 8: Cream (vehicle). All groups were treated from day 14 until day 28 post T-cells injection."}, "[2]": {"system": "inflammatory markers of the psoriatic xenotransplants (Ki-67, HLA-DR, CD8, CD4, IL-17)", "assay": "Human skin xenotransplant model of psoriasis: immunohistochemical staining for Ki-67, HLA-DR, CD8, CD4 and IL-17", "assay_type": "in vivo", "description": "as §1\nWe then stained skin sections derived from the various human xenotransplants for Ki-67 and HLA-DR: the first, a marker of cellular hyperproliferation and the second, for immune stimulation. Strong expression of Ki-67 was observed along the lower part of the epidermis in all control and vehicle groups and in the non-responders FMT xenotransplants. […] However, weak or absent HLA-DR expression was observed along the epidermis in the responders transplants treated with FMT.\nNegative expression—no staining Mild—minor level of cell infiltrates of positive cells along the dermis Dense—intense level of cell infiltrates of positive cells along the dermis\nTo characterize the inflammatory infiltrate in the skin, we examined the expression of CD8, CD4 and IL-17+cells, which mark T lymphocytes (FIG. 1 and Tables 15, 16).\nNegative expression—no staining Mild—minor level of cell infiltrates of positive cells along the dermis Dense—intense level of cell infiltrates of CD8+, CD4+IL17+positive cells along the dermis"}, "[3]": {"conditions": "cited from earlier work"}, "[4]": {"conditions": "topical bid, day 14 until day 28 post T-cells injection"}, "[5]": {"conditions": "intense level of cell infiltrates"}, "[6]": {"conditions": "minor level of cell infiltrates"}},
  "note": "Like-named read-outs stand apart in the source and are kept apart here. Marks after values point to notes of the source that are not given here.",
  "data": [
    {"molecule": "C[C@@H]1C[C@H]2[C@@H]3CCC4=CC(=O)C=C[C@]4(C)[C@@]3(F)[C@@H](O)C[C@]2(C)[C@@]1(O)C(=O)CO", "note": "[Dexamethasone]", "values": [
      {"measurement": "Epidermal thickness", "setting": "[1]; Donor 1", "value": 338, "unit": "μm"},
      {"measurement": "Epidermal thickness", "setting": "[1]; Donor 2", "value": 280, "unit": "μm"},
      {"measurement": "Epidermal thickness", "setting": "[1]; Donor 3", "value": 290, "unit": "μm"},
      {"measurement": "Epidermal thickness", "setting": "[1]; Donor 4", "value": 300, "unit": "μm"},
      {"measurement": "Epidermal thickness", "setting": "[1]; Donor 5", "value": 305, "unit": "μm"},
      {"measurement": "Epidermal thickness", "setting": "[1]; Donor 6", "value": 260, "unit": "μm"},
      {"measurement": "Mean epidermal thickness", "setting": "[1]; listed as Dexa", "value": "295* μm"},
      {"measurement": "Mean epidermal thickness", "setting": "[1]; listed as dexamethasone", "value": "295 ±26", "unit": "μm"},
      {"measurement": "Complete Recovery (grafts/total)", "setting": "[1]; [4]", "value": "5/6"},
      {"measurement": "Partial Recovery (grafts/total)", "setting": "[1]; [4]", "value": "1/6"},
      {"measurement": "Psoriatic Features (grafts/total)", "setting": "[1]; [4]", "value": "0/6"},
      {"measurement": "Epidermal HLA-DR Expression: Diffuse (grafts/total)", "setting": "[2]; Diffuse—more than 50% of the epidermal area", "value": "0/6"},
      {"measurement": "Epidermal HLA-DR Expression: Focal (grafts/total)", "setting": "[2]; Focal—less than 50% of the epidermal area", "value": "1/6"},
      {"measurement": "CD4 Expression: Dense", "setting": "[2]; Non responders grafts", "value": "0/6"},
      {"measurement": "CD4 Expression: Negative/Mild", "setting": "[2]; Non responders grafts", "value": "0/6"},
      {"measurement": "CD8 Expression: Dense", "setting": "[2]; Non responders grafts", "value": "0/6"},
      {"measurement": "CD8 Expression: Negative/Mild", "setting": "[2]; Non responders grafts", "value": "0/6"},
      {"measurement": "Dermal HLA-DR Expression: Dense", "setting": "[2]; Non responders grafts", "value": "0/6"},
      {"measurement": "Dermal HLA-DR Expression: Negative/Mild", "setting": "[2]; Non responders grafts", "value": "0/6"},
      {"measurement": "IL-17 Expression: Dense", "setting": "[2]; Non responders grafts", "value": "0/6"},
      {"measurement": "IL-17 Expression: Negative/Mild", "setting": "[2]; Non responders grafts", "value": "0/6"},
      {"measurement": "CD4 Expression: Dense", "setting": "[2]; Responders grafts", "value": "0/6"},
      {"measurement": "CD4 Expression: Negative/Mild", "setting": "[2]; Responders grafts", "value": "6/6"},
      {"measurement": "CD8 Expression: Dense", "setting": "[2]; Responders grafts", "value": "0/6"},
      {"measurement": "CD8 Expression: Negative/Mild", "setting": "[2]; Responders grafts", "value": "6/6"},
      {"measurement": "Dermal HLA-DR Expression: Dense", "setting": "[2]; Responders grafts", "value": "0/6"},
      {"measurement": "Dermal HLA-DR Expression: Negative/Mild", "setting": "[2]; Responders grafts", "value": "6/6"},
      {"measurement": "IL-17 Expression: Dense", "setting": "[2]; Responders grafts", "value": "0/6"},
      {"measurement": "IL-17 Expression: Negative/Mild", "setting": "[2]; Responders grafts", "value": "6/6"},
      {"measurement": "Epidermal HLA-DR Expression: Negative (grafts/total)", "setting": "[2]; in vivo", "value": "5/6"},
      {"measurement": "CD4 positive cells along the dermis: Dense", "setting": "[2]; [5]", "value": "0/10"},
      {"measurement": "CD8 positive cells along the dermis: Dense", "setting": "[2]; [5]", "value": "0/10"},
      {"measurement": "IL-17 positive cells along the dermis: Dense", "setting": "[2]; [5]", "value": "0/10"},
      {"measurement": "Dermal HLA-DR Expression: Dense (grafts/total)", "setting": "[2]; intense level of cell infiltrates of positive cells along the dermis", "value": "0/6"},
      {"measurement": "CD4 positive cells along the dermis: Mild", "setting": "[2]; [6]", "value": "2/6"},
      {"measurement": "CD8 positive cells along the dermis: Mild", "setting": "[2]; [6]", "value": "1/6"},
      {"measurement": "IL-17 positive cells along the dermis: Mild", "setting": "[2]; [6]", "value": "1/6"},
      {"measurement": "Dermal HLA-DR Expression: Mild (grafts/total)", "setting": "[2]; minor level of cell infiltrates of positive cells along the dermis", "value": "2/6"},
      {"measurement": "CD4 positive cells along the dermis: Negative", "setting": "[2]; no staining", "value": "4/6"},
      {"measurement": "CD8 positive cells along the dermis: Negative", "setting": "[2]; no staining", "value": "5/6"},
      {"measurement": "Dermal HLA-DR Expression: Negative (grafts/total)", "setting": "[2]; no staining", "value": "4/6"},
      {"measurement": "IL-17 positive cells along the dermis: Negative", "setting": "[2]; no staining", "value": "5/6"}
    ]},
    {"molecule": "CS(=O)(=O)O.Oc1ccc(C2CNCCc3c2cc(O)c(O)c3Cl)cc1", "note": "(centres unmarked) [Fenoldopam mesylate, 6-chloro-2,3,4,5-tetrahydro-1-(4-hydroxyphenyl)-1H-3-benzazepine-7,8-diol, methanesulfonate]", "values": [
      {"measurement": "solubility", "setting": "[3]; in propylene glycol", "value": "soluble"},
      {"measurement": "solubility", "setting": "[3]; in water, ethanol and methanol", "value": "sparingly soluble"}
    ]}
  ]
}
